In patent US20100323975A1, “THERAPEUTIC AGENT FOR CEREBRAL ISCHEMIC INJURY” (OTSUKA PHARMACEUTICAL FACTORY, INC., priority 2007, published 2010):
Peptide text beside a SMILES is read from it.

Assays:
[1] = L-histidine concentration in blood after intravenous administration (Test Example 2); details: male, Wistar, rat, in vivo, 15 min
Method: (§1) 7- to 9-week-old Wistar male rats were divided into the following 8 administration groups. The number of rats in each group was set at 4. […]
The therapeutic agent for cerebral ischemic injury obtained in Production Example 2 was diluted by a factor of 2, and the thus diluted solution was administered into the caudal vein of each rat at a rate of 60 mL/kg/hr for 10 minutes. […]
(§2) L-histidine was added to water for injection purpose, and acetic acid was further added thereto, so as to dissolve L-histidine in the solution. The obtained solution was adjusted to pH 6.0 with a sodium hydroxide aqueous solution. The obtained injection solution (L-histidine concentration: 10% (W/V)) was administered into the caudal vein of each rat at a rate of 60 mL/kg/hr for 10 minutes.
L-histidine was added to water for injection purpose, and citric acid was further added thereto, so as to dissolve L-histidine in the solution. The obtained solution was adjusted to pH 6.0 with a sodium hydroxide aqueous solution. The obtained injection solution (L-histidine concentration: 10% (W/V)) was administered into the caudal vein of each rat at a rate of 60 mL/kg/hr for 10 minutes. […]
(§3) After administration of the agent, blood was collected from each rat at regular time intervals, and the concentration of L-histidine (monomer) in blood was then measured using a high speed amino acid analyzer L-8800A (manufactured by Hitachi High-Technologies Corporation). […] In addition, the body temperature, blood pressure, and cardiac rate of each test animal were measured during the period from before administration of the agent until after the administration of the agent, and at the same time, the appearance of each test animal was observed, so as to examine the presence or absence of side effects caused by administration of the agent. The L-histidine concentration in blood was measured 15 minutes after the administration of the agent, and the presence or absence of side effects caused by such administration of the agent was examined.

Wistar male rats = assay: Identification of side effects after intravenous administration (Test Example 2); details: rat, in vivo
Method: as §1
L-histidine hydrochloride was dissolved in water for injection purpose, and the obtained solution was then adjusted to pH 6.0 with a sodium hydroxide aqueous solution. The obtained injection solution (L-histidine concentration: 10% (W/V)) was administered into the caudal vein of each rat at a rate of 60 mL/kg/hr for 10 minutes.
as §2
L-histidine was added to water for injection purpose, and citric acid was further added thereto, so as to dissolve L-histidine in the solution. The obtained solution was adjusted to pH 6.0 with a sodium hydroxide aqueous solution. The obtained injection solution (L-histidine concentration: 10% (W/V)) was administered into the caudal vein of each rat at a rate of 60 mL/kg/hr for 10 minutes.
β-alanyl-L-histidine was added to water for injection purpose, and the obtained solution was then adjusted to pH 7 with hydrochloric acid. The obtained injection solution (L-histidine concentration: 10% (W/V)) was administered into the caudal vein of each rat at a rate of 60 mL/kg/hr for 10 minutes. […]
as §3

[2] = Solubility in water at 25° C.; type: physicochemical
[3] = tested on: model of middle cerebral artery occlusion and subsequent reperfusion (cerebral ischemic injury); assay: Infarction rate and cerebral edema rate in model of middle cerebral artery occlusion and subsequent reperfusion (Test Example 5); type: in vivo, Wistar male rats; details: Production Example 4 injection (0.64 mol/L), caudal vein 60 mL/kg/hr for 10 minutes, immediately after and 6 hours after reperfusion; 120 min occlusion; 24 hours after reperfusion; FIG. 2
Description: Approximately 7-week-old Wistar male rats were used. The method of Koizumi et al. (Nou-socchu (Cerebral Apoplexy), Vol. 8, pp. 1-8, 1986) was applied to the rats under halothane anesthesia, so as to produce models of middle cerebral artery occlusion and subsequent reperfusion. Specifically, each rat was fixed under natural aspiration conditions under anesthesia with gas (initial anesthesia: performed in room air containing 3% halothane; continuous anesthesia: performed in room air containing 1% halothane), and the neck of the rat was then subjected to median incision. […]
On the day after the administration of the agent (24 hours after cerebral ischemia-reperfusion), a test animal was anesthetized with ether, and the brain was then excised. […] A slice of brain section was placed, with a surface to be measured down, into each well of a 12-well plate, which had been filled with a 2% TTC solution prepared by dissolving 2,3,5-triphenyltetrazolium chloride (TTC) in a phosphate buffered saline. […] Thus, the area of an infarct on the measurement surface of each brain section (the site in which brain tissue was considered to be necrosed) was measured, and the obtained value was then multiplied by the thickness of the brain section, so as to obtain the volume of an infarct in each brain section. […]

NCC(=O)N[C@@H](Cc1c[nH]cn1)C(=O)O [glycyl-L-histidine] (H-Gly-His-OH)
L-histidine concentration in blood (mean value) [1]: 6.2 mM
Side effects (Wistar male rats): None
solubility [2]: ≥ 3500 mM
Cerebral edema rate compared with control group [3]: remarkably suppressed
Infarction rate compared with control group [3]: remarkably suppressed
